Measured values as given in article PMC2228077, “The bioavailability of oral GI147211 (GG211), a new topoisomerase I inhibitor” (British Journal of Cancer, 1997).
Several values for one entry are separate records, joined by “and”; a condition that tells them apart may be missing. Equal entries are not always repeated. Structures can show the parent of a compound that is named as a salt.

Columns and labels:
[1] = Toxicity assessment (CTC criteria) in patients, oral day 1 + i.v. days 2-5 every 3 weeks; assay type: in vivo, human
Description: (§1) British Journal of Cancer (1997) 76(7), 946-951 ? 1997 Cancer Research Campaign The bloavailability of oral Gil 47211 (GG21 1), a new topoisomerase I inhibitor CJH Gerrits', JHM Schellens', GJ Creemers', P Wissel2, ASTh Planting', JF Pritchard2, S DePee2, M de Boer-Dennert', M Harteveld' and J Verweij' 'Department of Medical Oncology, Rotterdam Cancer Institute (Daniel den Hoed Kliniek) and University Hospital, The Netherlands; 2Glaxo Wellcome, Department of Pharmacokinetics, NC, USA Summary Topoisomerase I inhibitors are new compounds of interest for cancer chemotherapy. We performed a study with Gl147211, a new semisynthetic camptothecin analogue, to determine the absolute bioavailability of the drug given orally. […] Gi147211 was given orally on day 1 and as a 30-min infusion daily on days 2-5. The treatment course was repeated every 3 weeks. In subsequent patient cohorts, the dose of the oral formulation was escalated from 1.5 mg m-2 to 6.0 mg m-2; the dose for i.v. administration was fixed at 1.2 mg m-2. Plasma pharmacokinetics was performed on day 1 and 2 of the first course and on day 1 of the second course using a validated high-performance liquid chromatographic assay. […] Keywords: G1147211 (GG211); bioavailability; topoisomerase I inhibitor; phase I study G1147211 [7-(methylpiperazinomethylene)-10,11-ethylenedioxy- 20(S)-camptothecin dihydrochloride] is a water-soluble semisyn- thetic analogue of camptothecin (CPT). […] Its further development was stopped because of unpredictable and severe myelosuppression, gastro- intestinal toxicity and haemorrhagic cystitis (Gottlieb et al, 1970; Creaven et al, 1972; Muggia et al, 1972). Interest in CPT was renewed in the 1980s, because topoiso- merase I was identified as the single cellular target of CPT (Hsiang et al, 1988 1989), and an overexpression of topoisomerase I was found in various tumour cell lines but not in normal tissues (Giovanella et al, 1989; Hirabayashi et al, 1992). Topoisomerase I is a nuclear enzyme that resolves topological problems of the torsionally strained (supercoiled) DNA by forming a covalent adduct between topoisomerase I and the DNA, termed the cleav- able complex. This catalytic intermediate creates single-strand DNA breaks, allowing the DNA molecule to rotate around the intact DNA strand at the cleavage site, leading to a relaxation of Received 29 November 1996 Revised 27 March 1997 Accepted 1 April 1997 Correspondence to: CJH Gerrits, Department of Medical Oncology, Rotterdam Cancer Institute, (Daniel den Hoed Kliniek) and University Hospital, Groene Hilledijk 301, 3075 EA Rotterdam, The Netherlands the DNA molecule, and in this way replication, transcription and other DNA functions can proceed. These enzyme-bridged breaks are then resealed by topoisomerase I (Champoux, 1976; Muller, 1985; Muller et al, 1985; Camilloni et al, 1989). […] It has been documented that camptothecin (CPT) interferes with the breakage-reunion process of topoiso- merase I by stabilizing the enzyme-DNA cleavable complexes (Liu et al, 1989).

[2] = Plasma pharmacokinetics and absolute bioavailability, oral day 1 vs 30-min i.v. infusion day 2, patients with solid tumours; set-up: mean maximal plasma concentration (Cmax) after intravenous dosing: dose or concentration left out as unconfirmed
Description: as §1

[3] = mouse, in vivo; cited from earlier work
solid tumour = experiment: Tumour response (WHO criteria) in patients; assay type: in vivo, human; conditions: 17 evaluable patients
Description: British Journal of Cancer (1997) 76(7), 946-951 ? 1997 Cancer Research Campaign The bloavailability of oral Gil 47211 (GG21 1), a new topoisomerase I inhibitor CJH Gerrits', JHM Schellens', GJ Creemers', P Wissel2, ASTh Planting', JF Pritchard2, S DePee2, M de Boer-Dennert', M Harteveld' and J Verweij' 'Department of Medical Oncology, Rotterdam Cancer Institute (Daniel den Hoed Kliniek) and University Hospital, The Netherlands; 2Glaxo Wellcome, Department of Pharmacokinetics, NC, USA Summary Topoisomerase I inhibitors are new compounds of interest for cancer chemotherapy. We performed a study with Gl147211, a new semisynthetic camptothecin analogue, to determine the absolute bioavailability of the drug given orally. […] Gi147211 was given orally on day 1 and as a 30-min infusion daily on days 2-5. The treatment course was repeated every 3 weeks. In subsequent patient cohorts, the dose of the oral formulation was escalated from 1.5 mg m-2 to 6.0 mg m-2; the dose for i.v. administration was fixed at 1.2 mg m-2. Plasma pharmacokinetics was performed on day 1 and 2 of the first course and on day 1 of the second course using a validated high-performance liquid chromatographic assay. […]

[4] = oral dose level 6.0 mg m-2, Table 2
[5] = individual patients 1-19, i.v. 1.2 mg m-2, Table 3
[6] = individual patients, oral 6 mg m-2, Fed (after breakfast), Tables 3 and 4
[7] = individual patients, oral 6 mg m-2, fasted, Table 3
[8] = oral 6.0 mg m-2, lactone, Table 4

## CC[C@@]1(O)C(=O)OCc2c1cc1n(c2=O)Cc2c-1nc1cc3c(cc1c2CN1CCN(C)CC1)OCCO3 [GI147211, 7-(methylpiperazinomethylene)-10,11-ethylenedioxy-20(S)-camptothecin dihydrochloride]
[1]; [4]
  Fatigue, drug-related toxicity per course: 10 courses
  Vomiting, drug-related toxicity per course: 7 courses
[1]; six courses
  abdominal discomfort, mostly cramping, share of courses: 13%
[1]; summary
  nadir for neutropenia: 8 days
  nadir for thrombocytopenia: 15 days
[1]; three patients
  alopecia grade I, share of patients: 17%
[1]; three patients with CTC grade III-IV thrombocytopenia
  median platelet count: 2.5e+10 L⁻¹
[1]; two courses, not dose dependent
  mild headache, share of courses: 4.2%
[1]; two cycles
  vomiting CTC grade II, share of cycles: 4.2%
[2]; all oral doses 1.5-6 mg m-2, total = lactone plus acid, Table 3
  Oral AUC total, mean: 0.03633 µg·h/mL
[2]; course 1 vs course 2
  intrapatient variability of the absolute bioavailability, median: 31%
  intrapatient variability of the absolute bioavailability, range: 3-88%
[2]; human, in vivo
  absolute bioavailability, range between patients: 4.8-24.3%
  mean maximal plasma concentration (Cmax) after intravenous dosing: 0.02176 µg/mL
[2]; human, in vivo, iv, 1.2 mg
  i.v. AUC, mean: 0.03184 µg·h/mL
[2]; human, in vivo, po
  cases with Tmax < 0.5 h: 13 of 19
  dose dependence of oral bioavailability: not dose dependent
  median Tmax: 0.5 h
  terminal half-life after oral administration (lactone), range: 2.0 to 13.0 h
[2]; human, in vivo, po, 1.5 mg
  Oral Tmax: 0.25 h
[2]; human, in vivo, po, 6 mg
  Absolute bioavailability fasted, mean: 11.4%
  Absolute bioavailability fed, mean: 11.2%
  Oral Tmax fasted, mean: 0.65 h
  Oral Tmax fed, mean: 0.69 h
  influence of fasting or fed state on bioavailability: no significant influence
  influence of fed or fasted state on Tmax: not significantly influenced
  mean maximal plasma concentration (Cmax) after oral dosing: 4.02 ? 3.57 ng ml-1
[2]; i.v. 1.2 mg m-2, 13 patients of 6.0 mg m-2 level, Table 4
  i.v. t1/2, mean: 8.53 h
[2]; individual patient 18, oral 6 mg m-2, Fed, lactone plus acid, Table 3
  Oral AUC total: 0.01469 µg·h/mL
[2]; [5]
  i.v. AUC: 0.01911 µg·h/mL
  i.v. t1/2: 6.2 h (2×) and 6.0 h and 14.3 h and 5.6 h and 6.7 h and 7.0 h and 5.2 h and 9.5 h and 10.9 h and 10.5 h and 8.9 h and 6.8 h and 4.5 h and 18.6 h and 14.6 h and 7.2 h and 1.9 h and 4.9 h
[2]; individual patients, oral 1.5 mg m-2, Table 3
  Oral t1/2: 2.5 h and 4.0 h
[2]; individual patients, oral 1.5 mg m-2, lactone plus acid, Table 3
  Oral AUC total: 0.00312 µg·h/mL and 0.01116 µg·h/mL
[2]; individual patients, oral 3 mg m-2, Table 3
  Oral t1/2: 12.2 h and 7.7 h and 9.5 h and 5.1 h
[2]; individual patients, oral 3 mg m-2, lactone plus acid, Table 3
  Oral AUC total: 0.07082 µg·h/mL and 0.01281 µg·h/mL and 0.01521 µg·h/mL and 0.02405 µg·h/mL
[2]; individual patients, oral 3 mg m-2, second course (C2), Table 3
  Oral t1/2: 2.0 h and 11.7 h
[2]; [6]
  Absolute bioavailability Lactone: 10.5% and 11.9%
  Oral t1/2: 8.7 h and 6.0 h (2×) and 8.2 h and 11.1 h and 11.9 h and 4.1 h and 3.4 h and 3.5 h
[2]; [7]
  Absolute bioavailability Lactone: 11.1%
  Absolute bioavailability Total: 11.1%
  Oral t1/2: 4.2 h and 4.5 h and 4.3 h (2×) and 6.1 h and 10.4 h and 9.7 h and 7.8 h and 6.2 h and 13.0 h and 6.7 h and 5.0 h and 3.7 h
[2]; individual patients, oral 6 mg m-2, fasted, lactone plus acid, Table 3
  Oral AUC total: 0.15768 µg·h/mL and 0.0306 µg·h/mL and 0.03673 µg·h/mL and 0.03935 µg·h/mL and 0.05559 µg·h/mL and 0.02776 µg·h/mL and 0.01389 µg·h/mL and 0.02878 µg·h/mL and 0.03071 µg·h/mL and 0.04052 µg·h/mL and 0.0405 µg·h/mL
[2]; individual patients, oral 6 mg m-2, second course (C2), Table 3
  Oral t1/2: 7.8 h and 7.2 h
[2]; oral
  courses in which plasma concentrations could be measured at 24 h: 21 % of courses
[2]; oral 6.0 mg m-2, lactone and total
  courses in which plasma concentration-time curves could be measured up to 12 h: 68 % of courses
[2]; [8]
  Oral t1/2 fasted, mean: 6.61 h
  Oral t1/2 fed, mean: 6.84 h
[3]
  absolute bioavailability: 2-5%
Solid tumour
  best response to treatment: stable disease in seven patients
